Data published in ChEMBL document CHEMBL5728717, “Amino pyrimidine compound for inhibiting protein tyrosine kinase activity” (2021).

Target: Epidermal growth factor receptor (Homo sapiens, UniProt P00533)
Experiment: Kinase Inhibition Assay: Reagents and Materials:WT EGFR (Carna, Cat. No. 08-115), EGFR [L858R] (Carna, Cat. No. 08-502), EGFR [L858R/T790M] (Carna, Cat. No. 08-510), ATP (Sigma, Cat. No. A7699-1G), DMSO (Sigma, Cat. No. D2650), 96-well plate (Corning, Cat. No. 3365), 384-well plate (Greiner, Cat. No. 784076), HTRF Kinase TK Kit (Cisbio, Cat. No. 62TK0PEJ), Erlotinib (Selleckchem, Cat. No. S7787) …
Description: Then, it was diluted in DMSO with a 3-fold series gradient dilution for 10 times. […] The corresponding substrate and ATP were added and reacted at room temperature for 20 minutes (in which a negative and a positive control were set: the negative control is blank and the positive control is erlotinib). […] The inhibitions of the enzyme activity by the compounds at different concentrations were then fitted using Graphpad 5.0 software according to the four-parameter equation, and the IC50 values were calculated.

Epidermal growth factor receptor, sequence (P00533 25-1210 limits assumed, stated change not applied): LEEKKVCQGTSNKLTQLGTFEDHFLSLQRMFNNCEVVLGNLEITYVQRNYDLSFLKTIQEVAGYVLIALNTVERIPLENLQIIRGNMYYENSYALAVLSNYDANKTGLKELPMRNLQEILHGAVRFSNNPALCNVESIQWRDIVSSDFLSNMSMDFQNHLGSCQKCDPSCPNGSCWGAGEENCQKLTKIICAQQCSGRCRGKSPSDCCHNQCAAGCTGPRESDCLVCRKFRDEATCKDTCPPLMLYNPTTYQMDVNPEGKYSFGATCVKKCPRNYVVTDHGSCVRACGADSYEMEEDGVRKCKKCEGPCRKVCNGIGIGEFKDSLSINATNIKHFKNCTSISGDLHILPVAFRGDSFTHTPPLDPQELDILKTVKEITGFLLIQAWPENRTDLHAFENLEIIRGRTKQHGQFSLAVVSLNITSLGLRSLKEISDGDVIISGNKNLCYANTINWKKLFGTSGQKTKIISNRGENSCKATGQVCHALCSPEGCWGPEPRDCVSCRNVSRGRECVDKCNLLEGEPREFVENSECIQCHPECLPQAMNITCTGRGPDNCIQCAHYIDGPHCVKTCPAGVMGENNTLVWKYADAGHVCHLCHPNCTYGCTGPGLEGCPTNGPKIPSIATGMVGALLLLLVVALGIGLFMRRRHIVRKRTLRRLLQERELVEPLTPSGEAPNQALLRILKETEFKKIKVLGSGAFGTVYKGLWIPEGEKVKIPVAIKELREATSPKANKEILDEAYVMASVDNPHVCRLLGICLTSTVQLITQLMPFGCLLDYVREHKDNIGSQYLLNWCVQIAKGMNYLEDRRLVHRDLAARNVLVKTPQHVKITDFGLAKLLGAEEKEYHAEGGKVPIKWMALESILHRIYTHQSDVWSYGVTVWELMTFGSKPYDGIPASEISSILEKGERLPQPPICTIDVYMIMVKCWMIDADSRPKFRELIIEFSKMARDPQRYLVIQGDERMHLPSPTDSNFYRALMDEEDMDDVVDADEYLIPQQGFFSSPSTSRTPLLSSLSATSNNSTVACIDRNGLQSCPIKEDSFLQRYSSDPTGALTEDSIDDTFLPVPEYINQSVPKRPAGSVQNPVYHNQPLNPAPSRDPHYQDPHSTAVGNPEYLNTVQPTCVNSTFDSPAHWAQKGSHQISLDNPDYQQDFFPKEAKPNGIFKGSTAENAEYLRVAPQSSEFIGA

In the case of `C=CC(=O)Nc1cc(Nc2nccc(-c3cc(F)c4nc(C)n(C(C)C)c4c3)n2)c(OC)cc1N1CCC(OC)CC1`, the IC50 is reported as over 100 nM.
